We go through six molecules from US12186283B2, “Bismuth-thiol compositions and methods of use” (Microbion Corporation, priority 2018, dated 2025).

≈ marks a conversion by molar mass, not a printed value. Where “and” joins values, the source holds several entries; their conditions need not be identical. Equal values may be shown once. Read-outs that look alike come from different tables or passages of the source. Some results are limits rather than exact numbers.

Series [1] deals with S. aureus ATCC 29213. The settings on record: control strain ATCC 29213 S. aureus; per CLSI M100-S24 or provided by Microbion; cited from earlier work.
The subject of series [2] is Enterococcus spp. (E. faecalis, E. faecium). Nature of the series: Broth microdilution MIC (Example 11). The series is classed as cell-based. The note with it: Enterococcus faecium, VRE, E. faecium MMX 485; VRE, vanA, LevR, CipR, EryR; read-out: MIC.
Series [3] deals with beta-hemolytic streptococci (S. pyogenes, S. agalactiae). Nature of the series: Broth microdilution MIC (Example 11). The series is classed as cell-based, Streptococcus pyogenes, Streptococcus agalactiae. The settings on record: read-out: MIC.
Series [4] relates to P. aeruginosa. Nature of the series: Checkerboard FIC assay, BisEDT with CF agents (Example 10). The series is classed as cell-based, Pseudomonas aeruginosa. The note with it: for MIC: agent alone, as observed during FIC testing; for Drug B MIC: Colistin alone (checkerboard with BisEDT).
The subject of series [5] is Burkholderia cepacia complex. The series is described as above. The series is classed as cell-based, Burkholderia spp. The settings on record: for MIC: agent alone, as observed during FIC testing.
In series [6] the test system is P. aeruginosa. The settings on record: P. aeruginosa isolate 103, CLSI QC range in parenthesis, cited from earlier work.
The subject of series [7] is P. aeruginosa. The experiment in a line: Broth microdilution MIC (Example 10).
The subject of series [8] is Burkholderia cepacia complex. Nature of the series: Broth microdilution MIC (Example 10). The settings on record: initial MIC testing.
Series [9] has as its system Pseudomonas aeruginosa strain PA01. Nature of the series: Bacterial killing curves with and without 10% CF patient sputum.
The nature of series [10]: Aerosol particle size distribution of nebulized suspensions (cascade impactor / APS). The settings on record: exposure aerosols of the rat efficacy study, In-Tox Mercer Impactor.
Where [11] appears, read: S. agalactiae MMX 3741, ERY^R CC^R.
Setting [12] is: S. agalactiae MMX 3743, ERY^R CC^R.
The mark [13] stands for this setting: S. agalactiae MMX 4077, ERY^R CC^R.
Where [14] appears, read: S. agalactiae MMX 4079, ERY^R CC^R Pen^R MEM^R.
The mark [15] stands for this setting: S. agalactiae MMX 4086, ERY^R CC^R.

Consider `CC[C@H]1OC(=O)[C@H](C)[C@@H](O[C@H]2C[C@@](C)(OC)[C@@H](O)[C@H](C)O2)[C@H](C)[C@@H](O[C@@H]2O[C@H](C)C[C@H](N(C)C)[C@H]2O)[C@](C)(OC)C[C@@H](C)C(=O)[C@H](C)[C@@H](O)[C@]1(C)O` [Clarithromycin], for which, in series [1], the “Expected MIC: acceptable range” value was 0.12 to 0.5 µg/mL and the “Expected MIC: goal” value was 0.25 µg/mL.
As to `C[C@H]1COc2c(N3CCN(C)CC3)c(F)cc3c(=O)c(C(=O)O)cn1c23` [Levofloxacin, reference compound], the MIC in series [2] is over 64 µg/mL; in series [3] (setting [11]), 0.5 µg/mL (≈ 1.38 µM); in series [3] (setting [12]), 1 µg/mL (≈ 2.77 µM); in series [3] (setting [13]), 0.5 µg/mL (≈ 1.38 µM); in series [3] (setting [14]), 1 µg/mL (≈ 2.77 µM); in series [3] (setting [15]), 0.5 µg/mL (≈ 1.38 µM).
Turning to `NC[C@H]1O[C@H](O[C@H]2[C@H](O)[C@@H](O[C@H]3O[C@H](CO)[C@@H](O)[C@H](N)[C@H]3O)[C@H](N)C[C@@H]2N)[C@H](N)C[C@@H]1O` [TOB], the MIC is 128 µg/mL in series [4] (P. aeruginosa isolate 6322); 128 µg/mL in [4] (P. aeruginosa isolate 6977); 0.5 µg/mL in [4] (P. aeruginosa isolate 7745); 16 µg/mL in series [4] (P. aeruginosa isolate 8798); 0.5 µg/mL in [4] (P. aeruginosa isolate 9108); 32 µg/mL in series [5] (B. cenocepacia isolate 0548). The MIC in [5] (B. cenocepacia isolate 0813) was 256 µg/mL; in series [5] (B. cepacia isolate 1793), 16 µg/mL; in series [7] (P. aeruginosa isolate 103 (ATCC 25922), QC strain, initial MIC testing), 1 µg/mL (≈ 2.14 µM); in [7] (P. aeruginosa isolate 103 (ATCC 25922), during FIC testing, each agent tested alone for QC, one replicate), 1 µg/mL; in series [7] (P. aeruginosa isolate 1497 (TOB-R, AMK-R, CIP-I, AZT-R, COL-R), initial MIC testing), 16 µg/mL (≈ 34.2 µM); in series [7] (P. aeruginosa isolate 1530 (TOB-R, AMK-R, CIP-R), initial MIC testing), 32 µg/mL (≈ 68.4 µM). The MIC is over 256 µg/mL in series [7] (P. aeruginosa isolate 1553 (TOB-R, AMK-R, CIP-R), initial MIC testing); 128 µg/mL (≈ 274 µM) in [7] (P. aeruginosa isolate 6322 (MEM-R, TOB-R, AMK-R, CIP-R, AZT-R), initial MIC testing); 128 µg/mL (≈ 274 µM) in [7] (P. aeruginosa isolate 6977 (MEM-I, TOB-R, CIP-R, AZT-I), initial MIC testing); 0.5 µg/mL (≈ 1.07 µM) in [7] (P. aeruginosa isolate 7745 (MEM-R, CIP-R, AZT-R), initial MIC testing); 32 µg/mL (≈ 68.4 µM) in series [7] (P. aeruginosa isolate 7754 (MEM-R, TOB-R, CIP-R, AZT-I), initial MIC testing); 1 µg/mL (≈ 2.14 µM) in series [7] (P. aeruginosa isolate 7762 (MEM-I, CIP-I), initial MIC testing). For the same molecule, the MIC in series [7] (P. aeruginosa isolate 7871 (MEM-R, AZT-I), initial MIC testing) was 0.5 µg/mL (≈ 1.07 µM); in [7] (P. aeruginosa isolate 7874, initial MIC testing), 0.5 µg/mL (≈ 1.07 µM); in series [7] (P. aeruginosa isolate 7886 (MEM-R, CIP-R, AZT-R), initial MIC testing), 1 µg/mL (≈ 2.14 µM); in series [7] (P. aeruginosa isolate 8797 (MEM-R, TOB-R, AMK-R, CIP-R, AZT-R, COL-R), initial MIC testing), over 256 µg/mL; in series [7] (P. aeruginosa isolate 8798 (MEM-R, TOB-R, AMK-R, CIP-R, AZT-R, COL-R), initial MIC testing), 32 µg/mL (≈ 68.4 µM); in series [7] (P. aeruginosa isolate 9108 (CIP-R, AZT-I), initial MIC testing) it was 0.5 µg/mL (≈ 1.07 µM). For the same molecule, the MIC in [8] (B. cenocepacia isolate 0548 (CIP-R)) was 64 µg/mL (≈ 137 µM); in [8] (B. cenocepacia isolate 0813 (CPI-I)), 256 µg/mL (≈ 548 µM); in series [8] (B. cepacia isolate 0546), 64 µg/mL (≈ 137 µM); in [8] (B. cepacia isolate 1793), 64 µg/mL (≈ 137 µM); in [8] (B. cepacia isolate 9040), 8 µg/mL (≈ 17.1 µM); in series [8] (B. multivorans isolate 1791) it was 64 µg/mL (≈ 137 µM). The MIC in series [8] (B. multivorans isolate 5665 (CIP-I)) was determined as 64 µg/mL (≈ 137 µM); in [8] (B. multivorans isolate 8952 (CIP-I)) it was 16 µg/mL (≈ 34.2 µM). The “MIC, CLSI QC range” value in [6] (Table 24) and in series [6] (Table 26) was “(0.25-1) μg/mL” throughout.
Turning to `NC[C@H]1O[C@H](O[C@H]2[C@H](O)[C@@H](O[C@H]3O[C@H](CO)[C@@H](O)[C@H](N)[C@H]3O)[C@H](N)C[C@@H]2N)[C@H](N)C[C@@H]1O` [Tobramycin, reference compound], the FICB in [4] (P. aeruginosa 6322, FIC of Tobramycin in combination with BisEDT, panel rows C-G) is 1; in [4] (P. aeruginosa 6977, Tobramycin FIC in combination with BisEDT, per checkerboard row) it was 2; in [4] (P. aeruginosa 7745, Tobramycin FIC in combination with BisEDT, per checkerboard row) it was 1; in [4] (P. aeruginosa 9108, Tobramycin FIC in combination with BisEDT, per checkerboard row), 1; in series [5] (B. cenocepacia 548, FIC of Tobramycin in combination with BisEDT), 0.25; in [5] (B. cenocepacia 813, FIC of Tobramycin in combination with BisEDT) it was 1. For the same molecule, the FICB was 0.5 in [5] (B. cepacia 546, Tobramycin FIC in combination with BisEDT, per checkerboard row); 0.5 and 1 in [5] (B. cepacia 1793, Tobramycin FIC in combination with BisEDT, per checkerboard row); 1 in series [5] (B. multivorans 1795, FIC of Tobramycin in combination with BisEDT). The MICB in series [4] (P. aeruginosa 6322, MIC of Tobramycin in combination with BisEDT, panel rows C-G) was 128 µg/mL; in series [4] (P. aeruginosa 6977, Tobramycin MIC in combination with BisEDT, per checkerboard row) it was 256 µg/mL; in series [4] (P. aeruginosa 7745, Tobramycin MIC in combination with BisEDT, per checkerboard row) it was 0.5 µg/mL; in [4] (P. aeruginosa 9108, Tobramycin MIC in combination with BisEDT, per checkerboard row), 0.5 µg/mL; in [5] (B. cepacia 546, Tobramycin MIC in combination with BisEDT, per checkerboard row) it was 16 µg/mL; in series [5] (B. cepacia 1793, Tobramycin MIC in combination with BisEDT, per checkerboard row), 8 µg/mL and 16 µg/mL. Also, the MICB in [5] (B. multivorans 1795, MIC of Tobramycin in combination with BisEDT) is over 256 µg/mL. Further, the “CFU higher in cultures with sputum than without” value in [9] (PA01, 1 μg/mL, 10% CF sputum, most time points) is 0.5-1 log CFU/mL. Further, the “effect of CF patient sputum on bactericidal activity” value in series [9] (PA01, 10% CF patient sputum) is “partially inhibits”. The molecule further came in with an MMAD in series [10] of 2.81 μm.
Take `CCC[C@@H]1C[C@@H](C(=O)N[C@@H]([C@H]2O[C@H](SC)[C@H](O)[C@@H](O)[C@H]2O)[C@H](C)Cl)N(C)C1` [clindamycin, reference compound]: the MIC in [2] is over 32 µg/mL; in [3] (setting [11]), over 8 µg/mL; in series [3] (setting [12]) it was over 8 µg/mL; in series [3] (setting [13]), over 8 µg/mL; in [3] (setting [14]), over 8 µg/mL; in [3] (setting [15]), over 8 µg/mL.
Turning to Colistin, the FICB turned out to be 1 in series [4] (P. aeruginosa 6322, Colistin FIC in combination with BisEDT, per checkerboard row); 1 in series [4] (P. aeruginosa 6977, Colistin FIC in combination with BisEDT, per checkerboard row); 1 in series [4] (P. aeruginosa 7745, Colistin FIC in combination with BisEDT, per checkerboard row); 1 in [5] (B. multivorans 1795, FIC of Colistin in combination with BisEDT). The MICB is 0.5 µg/mL in [4] (P. aeruginosa 6322, Colistin MIC in combination with BisEDT, per checkerboard row); 1 µg/mL in series [4] (P. aeruginosa 6977, Colistin MIC in combination with BisEDT, per checkerboard row); 0.5 µg/mL in series [4] (P. aeruginosa 7745, Colistin MIC in combination with BisEDT, per checkerboard row). Further, the “Drug B MIC” value in series [4] (P. aeruginosa 6322) is 0.5 µg/mL; in series [4] (P. aeruginosa 6977) it was 1 µg/mL; in series [4] (P. aeruginosa 7745) it was 0.5 µg/mL; in series [4] (P. aeruginosa 8798), over 256 µg/mL; in [4] (P. aeruginosa 9108) it was 0.5 µg/mL.
